Measurements taken from ChEMBL document CHEMBL3525899, “Identification of the cytochrome P450 and other enzymes involved in the in vitro oxidative metabolism of a novel antidepressant, Lu AA21004” (Drug Metab Dispos, 2012).

What was measured:
Cytochrome P450 2C9 = Cytochrome P450 2C9 (Homo sapiens, UniProt P11712); experiment: Activity of human recombinant CYP2C9 expressed in microsomes isolated from human AHH-1 cells assessed as enzyme-mediated compound formation treated with Lu AA21004 at 8 to 50 uM after 120 mins by HPLC/MS-MS analysis in presence of NADPH regenerating system with NADP+; assay type: ADME, cell-free; conditions: 2 h
Chain of Cytochrome P450 2C9 (P11712 whole entry): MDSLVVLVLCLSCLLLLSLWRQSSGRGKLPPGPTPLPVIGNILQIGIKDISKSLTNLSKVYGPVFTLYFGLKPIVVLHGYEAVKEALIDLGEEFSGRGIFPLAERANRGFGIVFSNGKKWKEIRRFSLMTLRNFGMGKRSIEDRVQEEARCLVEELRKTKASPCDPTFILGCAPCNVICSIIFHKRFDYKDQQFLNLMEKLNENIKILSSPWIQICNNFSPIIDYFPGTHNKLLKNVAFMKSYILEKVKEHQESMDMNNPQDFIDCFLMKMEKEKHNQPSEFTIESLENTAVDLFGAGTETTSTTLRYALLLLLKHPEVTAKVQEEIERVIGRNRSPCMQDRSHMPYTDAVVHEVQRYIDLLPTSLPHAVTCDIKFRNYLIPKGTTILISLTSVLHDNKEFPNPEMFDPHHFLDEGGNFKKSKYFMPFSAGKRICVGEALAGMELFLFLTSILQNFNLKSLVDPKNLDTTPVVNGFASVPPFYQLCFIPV

Cytochrome P450 2B6 = molecular target: T1, Cytochrome P450 2B6 (Homo sapiens, UniProt P20813); experiment: Activity of human recombinant CYP2B6 expressed in microsomes isolated from human AHH-1 cells assessed as enzyme-mediated compound formation treated with Lu AA21004 at 8 to 50 uM after 120 mins by HPLC/MS-MS analysis in presence of NADPH regenerating system with NADP+; assay type: ADME, cell-free; conditions: 2 h
T1 sequence (P20813 whole entry): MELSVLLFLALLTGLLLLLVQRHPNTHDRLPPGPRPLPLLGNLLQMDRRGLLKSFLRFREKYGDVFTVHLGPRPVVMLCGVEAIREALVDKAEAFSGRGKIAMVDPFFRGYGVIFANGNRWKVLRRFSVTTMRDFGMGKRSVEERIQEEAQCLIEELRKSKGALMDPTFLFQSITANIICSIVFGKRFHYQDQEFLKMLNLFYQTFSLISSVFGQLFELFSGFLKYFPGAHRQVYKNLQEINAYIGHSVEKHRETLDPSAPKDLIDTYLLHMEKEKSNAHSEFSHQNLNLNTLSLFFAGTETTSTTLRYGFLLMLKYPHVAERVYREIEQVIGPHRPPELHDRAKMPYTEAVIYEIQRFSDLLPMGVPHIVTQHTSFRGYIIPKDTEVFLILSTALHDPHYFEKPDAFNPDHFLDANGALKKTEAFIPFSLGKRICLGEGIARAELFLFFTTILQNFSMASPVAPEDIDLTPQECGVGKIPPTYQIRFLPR

Liver microsome [1] = experiment: Drug level in pooled human liver microsomes treated with Lu AA21004 at 100 uM after 30 to 180 mins by HPLC/MS-MS analysis in presence of NADPH regenerating system with NADP+; assay type: ADME
Cytochrome P450 2C19 = Cytochrome P450 2C19 (Homo sapiens, UniProt P33261); experiment: Activity of human recombinant CYP2C19 expressed in microsomes isolated from human AHH-1 cells assessed as enzyme-mediated compound formation treated with Lu AA21004 at 8 to 50 uM after 120 mins by HPLC/MS-MS analysis in presence of NADPH regenerating system with NADP+; assay type: ADME, cell-free; conditions: 2 h
Chain of Cytochrome P450 2C19 (P33261 whole entry): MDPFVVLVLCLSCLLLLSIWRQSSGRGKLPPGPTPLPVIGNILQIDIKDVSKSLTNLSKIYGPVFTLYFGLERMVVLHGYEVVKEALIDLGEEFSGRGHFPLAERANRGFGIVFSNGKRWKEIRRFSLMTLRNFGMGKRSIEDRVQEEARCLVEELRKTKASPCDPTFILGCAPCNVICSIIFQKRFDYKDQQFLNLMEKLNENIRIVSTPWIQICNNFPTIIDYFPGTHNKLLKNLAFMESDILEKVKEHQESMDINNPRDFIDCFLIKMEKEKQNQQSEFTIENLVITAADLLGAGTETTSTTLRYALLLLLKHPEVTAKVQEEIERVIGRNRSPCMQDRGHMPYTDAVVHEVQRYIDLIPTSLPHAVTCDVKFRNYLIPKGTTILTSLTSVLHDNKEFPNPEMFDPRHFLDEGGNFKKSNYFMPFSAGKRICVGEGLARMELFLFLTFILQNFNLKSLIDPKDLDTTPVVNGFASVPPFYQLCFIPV

Liver microsome [2] = experiment: Drug level in phenotyped human liver microsomes treated with Lu AA21004 at 8 to 50 uM after 60 mins by HPLC/MS-MS analysis in presence of NADPH regenerating system with NADP+; assay type: ADME; conditions: 1 h

Measured: Drug metabolism

Cc1ccc(Sc2ccccc2N2CCN(O)CC2)c(C)c1
metabolite_detected: all assays above
